Laboratory results reported in patent US20090062291A1, “PHOSPHODIESTERASE 10 INHIBITORS” (priority 2007, published 2009).

The molecules below were run against T1, mPDE10A7 (Mus musculus, UniProt Q8CA95) (assay: mPDE10A7 enzyme inhibition (IMAP fluorescence polarization)). Details: fluorescein labeled cAMP or cGMP substrate, 30 min at room temperature.
T1 sequence (Q8CA95 446-763 limits assumed): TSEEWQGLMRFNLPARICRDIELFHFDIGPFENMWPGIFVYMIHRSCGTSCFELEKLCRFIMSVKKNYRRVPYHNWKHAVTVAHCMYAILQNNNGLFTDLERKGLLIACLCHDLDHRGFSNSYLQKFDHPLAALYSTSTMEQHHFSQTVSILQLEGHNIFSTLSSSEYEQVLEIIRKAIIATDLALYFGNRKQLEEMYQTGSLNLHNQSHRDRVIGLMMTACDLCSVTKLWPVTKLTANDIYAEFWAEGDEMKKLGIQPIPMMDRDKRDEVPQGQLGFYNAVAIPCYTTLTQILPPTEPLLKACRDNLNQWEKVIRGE
Type: biochemical
Method: Enzyme Activity. To analyze the enzyme activity, 5 μL of serial diluted mPDE10A7 containing lysate were incubated with equal volumes of diluted (100-fold) fluorescein labeled cAMP or cGMP for 30 min in MDC HE 96-well assay plates (Molecular Devices Corp., Sunnyvale Calif.) at room temperature. Both the enzyme and the substrates were diluted in the following assay buffer: Tris/HCl (pH 8.0) 50 mM, MgCl2 5 mM, 2-mercaptoethanol 4 mM, and BSA 0.33 mg/mL. After incubation, the reaction was stopped by adding 20 μL of diluted (400-fold) binding reagents and was incubated for an hour at room temperature. The plates were counted in an Analyst GT (Molecular Devices) for fluorescence polarization. An IMAP assay kit (Molecular Devices) was used to assess enzyme properties of mPDE10A7. Data were analyzed with SOFTMAX PRO software (Molecular Devices).
Enzyme Inhibition. To check the inhibition profile, 10 μL of serial diluted compounds were incubated with 30 μl of diluted PDE enzymes in a 96-well polystyrene assay plate for 30 min at room temperature. After incubation, 5 μL of the compound-enzyme mixture were aliquoted into a MDC HE black plate, mixed with 5 μL of 100-fold diluted fluorescein labeled substrates (cAMP or cGMP), and incubated for 30 min at room temperature. The reaction was stopped by adding 20 μL of diluted binding reagents and counted in an Analyst GT for fluorescence polarization. The data were analyzed with SoftMax Pro.
The IC50 values of a representative number of compounds of the invention in the above assay are as follows: […]

| SMILES | IC50 [nM] |
| --- | --- |
| COc1cc2nncc(-c3ccc(NC4CCOc5ccccc54)nc3)c2cc1OC (stereo not shown) [Cpd 8] | 12 |
| COc1cc2nncc(-c3ccc(N[C@H]4CCCc5c(Br)cccc54)nc3)c2cc1OC [Cpd 11] | 258 |
| C=Cc1cc(-c2cnnc3cc(OC)c(OC)cc23)cnc1NC(C)C [Cpd 22] | 1.7 |
| COc1cc2nncc(-c3cnc(NC(C)C)c(C#N)c3)c2cc1OC [Cpd 25] | 12 |

Continued by falling IC50, values first:

| IC50 [nM] | SMILES |
| --- | --- |
| 143 | COc1cc2nncc(-c3ccc(NC4CCc5cccc(OC)c5C4)nc3)c2cc1OC (stereo not shown) [Cpd 14] |
| 9 | COc1cc2nncc(-c3cnc(NC(C)C)c(C(N)=O)c3)c2cc1OC [Cpd 26] |
| 2.6 | COc1cc2nncc(-c3ccc(N[C@@H]4CCCc5ncccc54)nc3)c2cc1OC [Cpd 6] |
| 2.3 | COc1cc2nncc(-c3ccc(NC4CCCc5ncccc54)nc3)c2cc1OC (stereo not shown) [Cpd 5] |
| 1.1 | COc1cc2nncc(-c3cnc(N4CCC(C(C)(C)O)CC4)c(C4CC4)c3)c2cc1OC [Cpd 1, 2-(1-(3-cyclopropyl-5-(6,7-dimethoxycinnolin-4-yl)pyridin-2-yl)piperidin-4-yl)propan-2-ol] |
| 0.2 | COc1cc2nncc(-c3cnc(N4CCC(O)(c5cccnc5)CC4)c(C4CC4)c3)c2cc1OC [Cpd 15] |
